ChEMBL document CHEMBL1275384, “Structure-activity relationships of benzimidazole-based selective inhibitors of the mitogen activated kinase-5 signaling pathway” (2010)

Experiments:
KM12 = assay: Cytotoxicity against human KM12 cells at 10 uM assessed as cell growth relative to control; type: functional; conditions: read-out: Activity
HCT-15 = assay: Cytotoxicity against human HCT15 cells at 10 uM assessed as cell growth relative to control; type: functional; conditions: read-out: Activity
HOP-62 = assay: Cytotoxicity against human HOP62 cells at 10 uM assessed as cell growth relative to control; type: functional; conditions: read-out: Activity
A498 = assay: Cytotoxicity against human A498 cells at 10 uM assessed as cell growth relative to control; type: functional; conditions: read-out: Activity
HOP-92 = assay: Cytotoxicity against human HOP92 cells at 10 uM assessed as cell growth relative to control; type: functional; conditions: read-out: Activity
SK-MEL-28 = assay: Cytotoxicity against human SK-MEL-28 cells at 10 uM assessed as cell growth relative to control; type: functional; conditions: read-out: Activity
NCI/ADR-RES = assay: Cytotoxicity against human NCI/ADR-RES cells at 10 uM assessed as cell growth relative to control; type: functional; conditions: read-out: Activity
OVCAR-4 = assay: Cytotoxicity against human OVCAR4 cells at 10 uM assessed as cell growth relative to control; type: functional; conditions: read-out: Activity
TK-10 = assay: Cytotoxicity against human TK10 cells at 10 uM assessed as cell growth relative to control; type: functional; conditions: read-out: Activity
[1] = Cytotoxicity against human Hs 578T cells at 10 uM assessed as cell growth relative to control; type: functional; conditions: read-out: Activity
A549 = assay: Cytotoxicity against human A549 cells at 10 uM assessed as cell growth relative to control; type: functional; conditions: read-out: Activity
CAKI-1 = assay: Cytotoxicity against human Caki1 cells at 10 uM assessed as cell growth relative to control; type: functional; conditions: read-out: Activity
UACC-62 = assay: Cytotoxicity against human UACC62 cells at 10 uM assessed as cell growth relative to control; type: functional; conditions: read-out: Activity
NCI-H460 = assay: Cytotoxicity against human NCI-H460 cells at 10 uM assessed as cell growth relative to control; type: functional; conditions: read-out: Activity
BT-549 = assay: Cytotoxicity against human BT549 cells at 10 uM assessed as cell growth relative to control; type: functional; conditions: read-out: Activity
MOLT-4 = assay: Cytotoxicity against human MOLT4 cells at 10 uM assessed as cell growth relative to control; type: functional; conditions: read-out: Activity
T47D = assay: Cytotoxicity against human T47D cells at 10 uM assessed as cell growth relative to control; type: functional; conditions: read-out: Activity
SF-295 = assay: Cytotoxicity against human SF295 cells at 10 uM assessed as cell growth relative to control; type: functional; conditions: read-out: Activity
LOX IMVI = assay: Cytotoxicity against human LOXIMVI cells at 10 uM assessed as cell growth relative to control; type: functional; conditions: read-out: Activity
786-0 = assay: Cytotoxicity against human 786-0 cells at 10 uM assessed as cell growth relative to control; type: functional; conditions: read-out: Activity
COLO 205 = assay: Cytotoxicity against human COLO205 cells at 10 uM assessed as cell growth relative to control; type: functional; conditions: read-out: Activity
NCI-H226 = assay: Cytotoxicity against human NCI-H226 cells at 10 uM assessed as cell growth relative to control; type: functional; conditions: read-out: Activity
[2] = Cytotoxicity against human […] cells at 10 uM assessed as cell growth relative to control; type: functional; conditions: read-out: Activity
SW-620 = assay: Cytotoxicity against human SW620 cells at 10 uM assessed as cell growth relative to control; type: functional; conditions: read-out: Activity
M14 = assay: Cytotoxicity against human M14 cells at 10 uM assessed as cell growth relative to control; type: functional; conditions: read-out: Activity
NCI-H522 = assay: Cytotoxicity against human NCI-H522 cells at 10 uM assessed as cell growth relative to control; type: functional; conditions: read-out: Activity
UO-31 = assay: Cytotoxicity against human UO31 cells at 10 uM assessed as cell growth relative to control; type: functional; conditions: read-out: Activity
SNB-19 = assay: Cytotoxicity against human SNB19 cells at 10 uM assessed as cell growth relative to control; type: functional; conditions: read-out: Activity
MDA-MB-468 = assay: Cytotoxicity against human MDA-MB-468 cells at 10 uM assessed as cell growth relative to control; type: functional; conditions: read-out: Activity
DU-145 = assay: Cytotoxicity against human DU145 cells at 10 uM assessed as cell growth relative to control; type: functional; conditions: read-out: Activity
CCRF-CEM = assay: Cytotoxicity against human CCRF-CEM cells at 10 uM assessed as cell growth relative to control; type: functional; conditions: read-out: Activity
[3] = target: T1, Dual specificity mitogen-activated protein kinase kinase 5 (Homo sapiens) (UniProt Q13163); conditions: HEK293, at 10 µM;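 also: MEK5 activity stimulated by EGF, read out as phospho-ERK5 on Western blot after 1 h treatment, expressed relative to control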
T1 sequence (whole entry): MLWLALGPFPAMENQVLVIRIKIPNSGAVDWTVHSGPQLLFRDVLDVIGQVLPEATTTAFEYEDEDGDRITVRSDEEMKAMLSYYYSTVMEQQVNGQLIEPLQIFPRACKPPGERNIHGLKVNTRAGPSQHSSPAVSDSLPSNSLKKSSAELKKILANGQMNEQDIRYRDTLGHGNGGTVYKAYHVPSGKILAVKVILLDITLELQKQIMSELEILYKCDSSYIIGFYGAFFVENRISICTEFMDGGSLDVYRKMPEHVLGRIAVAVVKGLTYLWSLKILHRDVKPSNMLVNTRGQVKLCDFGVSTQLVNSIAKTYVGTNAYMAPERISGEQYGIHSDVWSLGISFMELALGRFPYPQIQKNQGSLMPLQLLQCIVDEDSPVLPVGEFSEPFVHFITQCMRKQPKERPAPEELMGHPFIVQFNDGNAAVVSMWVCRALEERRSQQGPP
Description: Inhibition of EGF-induced MEK5 activity in HEK293 cells assessed as phosphorylated ERK5 level at 10 uM after 1 hr by Western blotting relative to control

U-251 = assay: Cytotoxicity against human U251 cells at 10 uM assessed as cell growth relative to control; type: functional; conditions: read-out: Activity
MCF7 = assay: Cytotoxicity against human MCF7 cells at 10 uM assessed as cell growth relative to control; type: functional; conditions: read-out: Activity
HCC 2998 = assay: Cytotoxicity against human HCC2998 cells at 10 uM assessed as cell growth relative to control; type: functional; conditions: read-out: Activity
HL-60(TB) = assay: Cytotoxicity against human HL-60(TB) cells at 10 uM assessed as cell growth relative to control; type: functional; conditions: read-out: Activity
SK-MEL-2 = assay: Cytotoxicity against human SK-MEL-2 cells at 10 uM assessed as cell growth relative to control; type: functional; conditions: read-out: Activity
HCT-116 = assay: Cytotoxicity against human HCT116 cells at 10 uM assessed as cell growth relative to control; type: functional; conditions: read-out: Activity
SK-OV-3 = assay: Cytotoxicity against human SKOV3 cells at 10 uM assessed as cell growth relative to control; type: functional; conditions: read-out: Activity
SF-539 = assay: Cytotoxicity against human SF539 cells at 10 uM assessed as cell growth relative to control; type: functional; conditions: read-out: Activity
OVCAR-8 = assay: Cytotoxicity against human OVCAR8 cells at 10 uM assessed as cell growth relative to control; type: functional; conditions: read-out: Activity
HT-29 = assay: Cytotoxicity against human HT-29 cells at 10 uM assessed as cell growth relative to control; type: functional; conditions: read-out: Activity
SNB-75 = assay: Cytotoxicity against human SNB75 cells at 10 uM assessed as cell growth relative to control; type: functional; conditions: read-out: Activity
UACC-257 = assay: Cytotoxicity against human UACC257 cells at 10 uM assessed as cell growth relative to control; type: functional; conditions: read-out: Activity
K562 = assay: Cytotoxicity against human K562 cells at 10 uM assessed as cell growth relative to control; type: functional; conditions: read-out: Activity

## COc1cc(NCc2ccccc2)c2ncn(C(C)C)c2c1
KM12
  growth at 10 µM: 104%
HCT-15
  growth at 10 µM: 97.9%
HOP-62
  growth at 10 µM: 101%
A498
  growth at 10 µM: 106%
HOP-92
  growth at 10 µM: 64.5%
SK-MEL-28
  growth at 10 µM: 125%
NCI/ADR-RES
  growth at 10 µM: 96.7%
OVCAR-4
  growth at 10 µM: 50.6%
TK-10
  growth at 10 µM: 136%
[1]
  growth at 10 µM: 174%
A549
  growth at 10 µM: 110%
CAKI-1
  growth at 10 µM: 97.2%
UACC-62
  growth at 10 µM: 97.3%
NCI-H460
  growth at 10 µM: 107%
BT-549
  growth at 10 µM: 55.6%
MOLT-4
  growth at 10 µM: 78.7%
T47D
  growth at 10 µM: 80.1%
SF-295
  growth at 10 µM: 138%
LOX IMVI
  growth at 10 µM: 115%
786-0
  growth at 10 µM: 96.5%
COLO 205
  growth at 10 µM: 118%
NCI-H226
  growth at 10 µM: 97.1%
[2]
  growth at 10 µM: 71.5%
SW-620
  growth at 10 µM: 146%
M14
  growth at 10 µM: 108%
NCI-H522
  growth at 10 µM: 87%
UO-31
  growth at 10 µM: 83.2%
SNB-19
  growth at 10 µM: 90.7%
MDA-MB-468
  growth at 10 µM: 36.5%
DU-145
  growth at 10 µM: 136%
CCRF-CEM
  growth at 10 µM: 93.9%
[3]
  inhibition: 85%
U-251
  growth at 10 µM: 103%
MCF7
  growth at 10 µM: 5.8%
HCC 2998
  growth at 10 µM: 105%
HL-60(TB)
  growth at 10 µM: 50.3%
SK-MEL-2
  growth at 10 µM: 91.6%
HCT-116
  growth at 10 µM: 103%
SK-OV-3
  growth at 10 µM: 110%
SF-539
  growth at 10 µM: 96.2%
OVCAR-8
  growth at 10 µM: 98.7%
HT-29
  growth at 10 µM: 109%
SNB-75
  growth at 10 µM: 92.3%
UACC-257
  growth at 10 µM: 106%
K562
  growth at 10 µM: 64.2%

## COCCCOc1cc(NCc2ccccc2)c2ncn(C(C)C)c2c1
KM12
  growth at 10 µM: 100%
HCT-15
  growth at 10 µM: 110%
HOP-62
  growth at 10 µM: 85.7%
A498
  growth at 10 µM: 83.5%
HOP-92
  growth at 10 µM: 90.9%
SK-MEL-28
  growth at 10 µM: 115%
NCI/ADR-RES
  growth at 10 µM: 85.3%
OVCAR-4
  growth at 10 µM: 87.8%
TK-10
  growth at 10 µM: 109%
[1]
  growth at 10 µM: 84.4%
A549
  growth at 10 µM: 94%
CAKI-1
  growth at 10 µM: 81.3%
UACC-62
  growth at 10 µM: 91.9%
NCI-H460
  growth at 10 µM: 85.2%
BT-549
  growth at 10 µM: 90.1%
MOLT-4
  growth at 10 µM: 88.2%
T47D
  growth at 10 µM: 91.9%
SF-295
  growth at 10 µM: 97.4%
LOX IMVI
  growth at 10 µM: 94.5%
786-0
  growth at 10 µM: 95.7%
COLO 205
  growth at 10 µM: 100%
NCI-H226
  growth at 10 µM: 91.6%
[2]
  growth at 10 µM: 89.2%
SW-620
  growth at 10 µM: 101%
M14
  growth at 10 µM: 104%
NCI-H522
  growth at 10 µM: 127%
UO-31
  growth at 10 µM: 79.9%
SNB-19
  growth at 10 µM: 90.3%
MDA-MB-468
  growth at 10 µM: 104%
DU-145
  growth at 10 µM: 99.2%
CCRF-CEM
  growth at 10 µM: 86.8%
[3]
  inhibition: 51%
U-251
  growth at 10 µM: 95.6%
MCF7
  growth at 10 µM: 93.2%
HCC 2998
  growth at 10 µM: 91.7%
HL-60(TB)
  growth at 10 µM: 100%
SK-MEL-2
  growth at 10 µM: 92.7%
HCT-116
  growth at 10 µM: 100%
SK-OV-3
  growth at 10 µM: 101%
SF-539
  growth at 10 µM: 93.5%
OVCAR-8
  growth at 10 µM: 99.3%
HT-29
  growth at 10 µM: 109%
SNB-75
  growth at 10 µM: 92%
UACC-257
  growth at 10 µM: 101%
K562
  growth at 10 µM: 90.9%
